Results taken from patent US20230172901A1, “COMPOSITIONS AND METHODS FOR THE PROPHYLAXIS AND TREATMENT OF FIBROTIC AND INFLAMMATORY CONDITIONS” (GRETALS AUSTRALIA PTY LTD, priority 2020, published 2023).
Entries after “also recorded” stand apart in the source; their conditions may differ.

Tests used:
[1] = system: sheep model for pulmonary fibrosis; assay: Example 2: overall conclusion on efficacy in sheep model of pulmonary fibrosis; type: in vivo
Text: (§1) In this study, a total of 10 sheep were used. Fibrosis in two lung segments of each sheep in a similar manner as performed in Example 1 herein. Using this procedure (as detailed further below) the fibrosis was confined to small, isolated regions in the lungs leaving the remaining 90-95% of the healthy unaffected lungs to undertake normal respiratory function.
(§2) All sheep (n=10) in the study were challenged with 2 single doses of bleomycin (3 units) per lung segment, a fortnight apart and the animals were kept for a little over 5 weeks after the final bleomycin dose. Bleomycin is a well-known agent for inducing fibrosis in the lungs. The administration procedure involves inserting a bronchoscope into lung segments in the right and left lung, and then slowly infusing the bleomycin into two segments as shown in FIG. 2 via the bronchoscope biopsy port.
(§3) In the study detailed in Example 1 herein, the dose-rate of pinocembrin was 7 mg pinocembrin per sheep, per week.
For control purposes the lung segment in the opposite lung was used as a bleomycin-positive, without drug, control, as indicated in FIG. 1. The bioactive molecules in vehicle, were delivered as 5 ml infusions through the biopsy port of the bronchoscope. […]

[2] = system: sheep model for pulmonary fibrosis, bleomycin-injured lung segments; assay: Example 2: Masson's trichrome assay of connective tissue content; type: in vivo
Text: as §1
All sheep (n=10) in the study were challenged with 2 single doses of bleomycin (3 units) per lung segment, a fortnight apart and the animals were kept for a little over 5 weeks after the final bleomycin dose. Bleomycin is a well-known agent for inducing fibrosis in the lungs. […]
The degree of fibrosis was quantified by assessing the changes in overall connective tissue content within the parenchymal tissue using methods known to the skilled person. […] The images were then analysed using Image-Pro® Plus (Version 6.3 for Windows, Media Cybernetics, Bethesda, Md., USA) using the ‘colour selector’ tool to measure the area of blue-stained tissues (collagen and other connective tissues) within each field of view. […] The fraction of blue stained tissue area was expressed as a percentage per total field area (percentage of blue stained tissue area per total field area). […]

[3] = system: sheep model for pulmonary fibrosis, bleomycin-injured lung segments; assay: Example 2: CD4+ and CD8+ T cells in lung parenchyma (immunohistochemistry); type: in vivo
Text: as §1, §2, §3
For control purposes the lung segment in the opposite lung was used as a bleomycin-positive, without drug, control, as indicated in FIG. 1. The bioactive molecules in vehicle, were delivered as 5 ml infusions through the biopsy port of the bronchoscope. Note that to nullify any small differences (e.g. physiological or anatomical etc.) between the left and right lungs, the infusions of pinocembrin were randomized between the left and right caudal lung segments. Half the animals (5 sheep) received pinocembrin to the right caudal lung segments, while the other 5 sheep received pinocembrin to the left caudal lung segments. The right medial lung segment was left untreated and used for healthy lung control tissue which was sampled at autopsy (FIG. 2). […]
Immunohistochemistry was performed on these frozen tissue sections using the indirect immunoperoxidase technique. […] For cell counts, either 200 immunoperoxidase positive cells were counted in a maximum of 20 microscope fields (×400 magnification) using an area-calibrated grid, or a minimum of 20 microscope fields were counted for less frequent counts.

[4] = system: sheep model for pulmonary fibrosis, bleomycin-injured lung segments; assay: Example 2: bronchoalveolar lavage (BAL) inflammatory cell counts; type: in vivo
Text: as §1, §2, §3
(§4) For control purposes the lung segment in the opposite lung was used as a bleomycin-positive, without drug, control, as indicated in FIG. 1. The bioactive molecules in vehicle, were delivered as 5 ml infusions through the biopsy port of the bronchoscope. Note that to nullify any small differences (e.g. physiological or anatomical etc.) between the left and right lungs, the infusions of pinocembrin were randomized between the left and right caudal lung segments. Half the animals (5 sheep) received pinocembrin to the right caudal lung segments, while the other 5 sheep received pinocembrin to the left caudal lung segments. The right medial lung segment was left untreated and used for healthy lung control tissue which was sampled at autopsy (FIG. 2).
For each of the bronchoalveolar (BAL) samplings at the timepoints listed in FIG. 1, the endoscope was manipulated into a specific lung-segment for sampling, usually passing through about 3-4 airway branches. For BAL sampling, 10 ml of sterile saline was infused through the biopsy port of the endoscope into the specific lung-segment and then recovered into a syringe through the same port. This procedure recovered between 3 and 5 ml of BAL fluid. The sampling method collects cells for analyses from the small airway and alveolar lumens of the specific lung-segment where the bronchoscope was navigated to. The BAL cells from each segment were centrifuged onto glass slides and stained for differential cell counting of inflammatory cells with Hem-Quik.

sheep = assay: Example 2: animal health and safety of pinocembrin administration; type: in vivo
Experimental: as §3, §4
The sheep were bled at the times indicated in FIG. 1 by sampling 10 ml of blood from the jugular vein into a tube containing heparin. The blood was processed for blood cell count analyses.
Health checks were routinely performed throughout the treatment periods and throughout the trial until euthanasia.

[5] = system: sheep model for pulmonary fibrosis, bleomycin-injured lung segments; assay: Example 2: histopathology scoring (H&E; inflammation, fibrosis, overall pathology); type: in vivo
Experimental: Histopathology of lung parenchyma was assessed by an experienced pathologist blinded to the treatment groups using a semi-quantitative scoring system. Briefly, the criteria used gives score indices separately for both inflammation and fibrosis pathology, and these score indices added together give an ‘overall pathology score’.
as §1, §2, §3, §4
Following euthanasia, the lungs were removed, and targeted lung-segments identified and carefully dissected free from surrounding tissue. Individual segments were then inflated with a 1:1 mixture of Optimal Cutting Temperature Compound (OCT, ProSciTech Ltd Pty) and sterile PBS solution, under pressure of approximately 20 cm/H2O. Several serial transverse sections of the inflated segment were fixed in 10% neutral-buffered formalin and processed in paraffin for histopathological assessment. Remaining lung slices were embedded in OCT and frozen in cryo-moulds on aluminium boats floating on liquid nitrogen for immunochemistry analyses.
Paraffin-embedded tissue sections (5 μm) were stained with haematoxylin and eosin Y (H&E) for general histology and with Masson's trichrome staining to identify changes to collagen content within the lung parenchyma.
Histopathology of the lung parenchyma was assessed using a semi-quantitative scoring system as outline in Example 1 herein. […] For each H&E stained section, 10 consecutive, non-overlapping fields at ×20 magnification were graded based on the scoring criteria for fibrosis, inflammation and overall pathology scores as outlined in Example 1 herein. The areas were selected away from large airways and major blood vessels. Scores from all ten fields were then averaged to give representative scores for the parameters assessed in the sectioned lung segment.

[6] = soxhlet extraction of dry leaves with n-hexane or methanol; cited from earlier work
[7] = individual sheep data, 10 sheep
[8] = week 12 post-mortem, vs bleomycin alone, 4 weekly infusions of 7 mg, n=10 sheep
[9] = week 12, vs bleomycin alone without pinocembrin, 4 weekly infusions of 7 mg, n=10 sheep
[10] = pinocembrin treatment period, 10 sheep
[11] = throughout the pinocembrin treatment period, 10 sheep
[12] = vs segments which received bleomycin infusion only, 4 weekly treatments of 7 mg, n=10 sheep

SMILES: O=C1CC(c2ccccc2)Oc2cc(O)cc(O)c21 (stereo not drawn) [pinocembrin, 5,7-Dihydroxy-2-Phenyl-2,3-Dihydro-4H-Chromen-4-One]
- anti-inflammatory properties (overall) ([1]; from BAL cell and parenchymal T cell data): strong anti-inflammatory properties
- anti-fibrotic effect (overall) ([1]; from fibrosis scores, Masson's trichrome and hydroxy proline assays): modest anti-fibrotic effect
- sheep with decreased percentage blue values ([2]; individual sheep data, vs bleomycin injury without pinocembrin, 10 sheep): nine out of ten
- percentage blue staining, Masson's Trichrome stained connective tissue ([2]; vs bleomycin-infused lung without pinocembrin, 4 weekly treatments of 7 mg, n=10 sheep): significantly reduces; also recorded: significant decrease; also recorded: significantly lower
- sheep with lower CD8+ and CD4+ T cells after pinocembrin treatment [3, 7]: All sheep
- numbers of CD4+ T cells in the lung parenchyma [3, 8]: significantly lower; also recorded: significant reduction
- numbers of CD8+ T cells in the lung parenchyma [3, 8]: significantly lower; also recorded: significant reduction
- sheep with lower inflammatory cell numbers in BAL fluid ([4]; individual sheep data, vs bleomycin without pinocembrin, 10 sheep): Nine out of ten
- neutrophil, % of total BAL cells ([4]; pinocembrin-treated bleomycin-injured lung segments (7.4% in bleomycin without drug)): 3.7%
- numbers of inflammatory cells (neutrophils, eosinophils and lymphocytes) in BAL fluid [4, 9]: significantly lower; also recorded: significantly reduces
- numbers of neutrophils in BAL fluid [4, 9]: significantly lower
- untoward health effects (clinical assessment criteria) (sheep; all ten sheep undergoing the trial): no untoward health effects
- differential counts of blood leukocytes (sheep; both sampling time points, 10 sheep): within normal ranges
- additional pathology or lung damage in pinocembrin exposed segments (sheep; lung segment exposed to pinocembrin, post-mortem): no obvious signs of additional pathology or lung damage
- adverse health events (sheep; [10]): no otherwise adverse health events
- weight gain (sheep; [10]): expected normal range
- core temperature readings (sheep; [11]): within the normal range
- heart, and respiratory rates (sheep; [11]): within normal ranges
- animal health during treatment period (sheep; week 8 to week 12, 7 mg per sheep per week into one lung segment, 10 sheep): remained healthy
- sheep having improved fibrosis scores [5, 7]: eight out of ten
- sheep having improved inflammation scores [5, 7]: nine out of ten
- sheep having improved overall pathology scores [5, 7]: Nine out of ten
- fibrosis score (histopathology), difference ([5]; lower than segments which received bleomycin infusion only, 4 weekly treatments of 7 mg, n=10 sheep): not statistically significant
- pathology scores (all three parameters) compared with untreated control lung segments ([5]; pinocembrin-treated bleomycin segments vs untreated control segments, n=10 sheep): significantly higher
- inflammation score (histopathology) [5, 12]: significantly lower; also recorded: significantly improved
- overall pathology score (histopathology) [5, 12]: significantly lower; also recorded: significantly improved
- temperature survived for extended periods [6]: up to 68 °C
